{"source": "patent US7563899B2", "about": "“(S)-N-methylnaltrexone” (Progenics Pharmaceuticals, Inc., priority 2005, dated 2009)", "key": {"[1]": {"target": "human recombinant mu opioid receptors (Homo sapiens, UniProt P35372)", "sequence (P35372 whole entry)": "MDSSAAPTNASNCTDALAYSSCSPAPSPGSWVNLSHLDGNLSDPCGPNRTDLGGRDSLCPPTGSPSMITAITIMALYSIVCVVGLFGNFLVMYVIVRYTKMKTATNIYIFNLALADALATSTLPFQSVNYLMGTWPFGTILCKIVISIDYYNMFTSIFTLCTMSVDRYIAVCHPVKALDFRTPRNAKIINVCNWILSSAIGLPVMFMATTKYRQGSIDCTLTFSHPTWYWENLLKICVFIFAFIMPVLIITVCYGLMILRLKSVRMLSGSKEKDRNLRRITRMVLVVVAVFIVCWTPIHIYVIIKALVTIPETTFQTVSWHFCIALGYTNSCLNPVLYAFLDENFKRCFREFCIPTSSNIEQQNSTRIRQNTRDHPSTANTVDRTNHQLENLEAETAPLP", "test": "Radioligand binding assay, mu opioid receptor", "method": "(§1) Radioligand binding assays were conducted to determine the binding specificity of S-N-methynaltrexone for μ-, κ-, and δ-opiate receptors using methods adapted from scientific literature (Simonin, F et al 1994, Mol. Pharmacol 46:1015-1021; Maguire, P. et al 1992, Eur. J. Pharmacol. 213:219-225; Simonin, F. et al PNAS USA 92(15):1431-1437; Wang, J B 1994, FEBS Lett 338:217-222)."}, "[2]": {"target": "T1, μ-opioid receptors in the guinea pig ileum (Cavia porcellus, UniProt A0ACM8Q262)", "T1 sequence (A0ACM8Q262 1-400)": "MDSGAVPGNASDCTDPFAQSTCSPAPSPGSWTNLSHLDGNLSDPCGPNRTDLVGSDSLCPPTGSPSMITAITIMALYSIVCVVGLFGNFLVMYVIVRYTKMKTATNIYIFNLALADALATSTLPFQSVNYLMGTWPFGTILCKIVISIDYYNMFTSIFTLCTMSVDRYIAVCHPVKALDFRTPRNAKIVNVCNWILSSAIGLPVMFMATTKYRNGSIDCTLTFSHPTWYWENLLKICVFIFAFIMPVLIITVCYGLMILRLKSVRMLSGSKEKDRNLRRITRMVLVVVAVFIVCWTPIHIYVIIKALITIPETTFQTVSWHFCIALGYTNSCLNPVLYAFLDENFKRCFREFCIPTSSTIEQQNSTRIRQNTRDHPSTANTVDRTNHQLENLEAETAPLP", "test": "Guinea pig ileum bioassay, test for antagonist activity (against DAMGO-induced response)", "conditions": "for Response to DAMGO (1.0E−07 M) in the presence of the compound: percent of control response to DAMGO, mean, n=2", "method": "(§2) Experimental Conditions. Segments of guinea pig terminal ileum were suspended in 20-ml organ baths filled with an oxygenated (95% O2 and 5% CO2) and pre-warmed (37° C.) physiological salt solution of the following composition (in mM): NaCl 118.0, KCl 4.7, MgSO4 1.2, CaCl2 2.5, KH2PO4 1.2, NaHCO3 25.0 and glucose 11.0 (pH 7.4). Additional experimental conditions were as described in Hutchinson et al. (1975) Brit. J. Pharmacol., 55: 541-546.\n(§3) Indomethacin (1 μM), nor-binaltorphimine (0.01 μM), methysergide (1 μM), ondansetron (10 μM) and GR113808 (0.1 μM) were also present throughout the experiments to prevent prostanoid release and to block the k-opioid, 5-HT2, 5-HT3 and 5-HT4 receptors, respectively. The tissues were connected to force transducers for isometric tension recordings. They were stretched to a resting tension of 1 g then allowed to equilibrate for 60 min during which time they were washed repeatedly and the tension readjusted. Thereafter, they were stimulated electrically with pulses of minimal intensity to trigger maximal contractions and 1 ms duration, delivered at 0.1 Hz by a constant current stimulator.\nTest for antagonist activity. […] Each concentration was left in contact with the tissues until a stable response was obtained or for a maximum of 15 min.\n(§4) Analysis and Expression of Results. The parameter measured was the maximum change in the amplitude of the electrically-evoked twitch contractions induced by each compound concentration."}, "[3]": {"system": "gastrointestinal transit in rats", "test": "Gastrointestinal transit (charcoal motility) in rats, alone or before morphine", "format": "in vivo, rat", "conditions": "for Mean Motility: ratio of length of charcoal transit/total intestine length, * p<0.05 vs vehicle", "method": "F. et al J. Pharmacol. Exptl. Therap. 133: 400-408, 1961; D. E. Gmerek, et al J. Pharmacol. Exptl. Ther. 236: 8-13, 1986; and O. Yamamoto et al Neurogastroenterol. Motil. 10: 523-532, 1998.\nA control group of rats received 2 mL/kg of a 0.9% saline solution (n=10). After 15 minutes, rats were subcutaneously injected with saline (1 mL/kg) or morphine (3 mg/kg). A 10% suspension of activated charcoal in 0.25% methylcellulose was administered orally at 10 mL/kg to the rats 20 minutes (±2 minutes) after the subcutaneous dose of morphine or saline. The rats were euthanized 25 minutes (±3 minutes) after receiving the charcoal and the intestines were removed and lightly stretched on moist paper along a meterstick. The small intestine from pyloric sphincter to caecum was measured and the distance traveled by the charcoal as a fraction of that length was evaluated for each rat.\nStatistically significant effects were determined by ANOVA with Tukey HSD Multiple Comparison Test. Differences with p values <0.05 were considered statistically significant.\nValues for charcoal motility were expressed as a percent effect and were calculated in the following manner: The individual distance traveled by the charcoal in centimeters was divided by the total length of the intestines in centimeters (pyloric sphincter to caecum) for each rat. Mean values were calculated for each group, and the percent effect was calculated using the following formula: […]"}, "[4]": {"target": "T2, human μ (mu, MOP) receptor (Homo sapiens, UniProt P35372)", "T2 construct": "expressed in transfected cells; host or cells: CHO cells", "T2 sequence (P35372 whole entry)": "as the sequence (P35372 whole entry) above", "test": "cAMP assay in CHO cells expressing human mu receptor, antagonist assay", "format": "cell-based", "conditions": "for cAMP antagonist assay value (Table IX.2): then 30 μM DAMGO, then forskolin", "method": "Thus full antagonist effect was equivalent to forskolin without any addition of μ-opioid agonist.\nCells were grown to confluence in 96-well plates. Cells were washed and equilibrated in physiological buffer before analysis. 20 ul of drug, 100 uM IBMX and 10 uM forskolin were added and incubated for 25 minutes at room temperature and then the reaction was stopped with the addition of 0.1 N HCl. Extracted cAMP level was determined via competitive EIA assay utilizing alkaline phosphatase. Additional experimental conditions were as described in Toll L., J Pharmacol Exp Ther. (1995) 273(2): 721-7."}, "[5]": {"target": "T1, μ-opioid receptors in the guinea pig ileum", "test": "Guinea pig ileum bioassay, test for agonist activity (inhibition of electrically evoked twitch contractions)", "conditions": "for Response to the compound (decrease in twitch contraction amplitude): percent of control response to DAMGO 1.0E−07 M", "method": "as §2, §3\nTest for agonist activity. […] The different concentrations were added cumulatively and each was left in contact with the tissues until a stable response was obtained or for a maximum of 15 min.\nas §4"}, "[6]": {"target": "human recombinant kappa opioid receptors (Homo sapiens, UniProt P41145)", "sequence (P41145 whole entry)": "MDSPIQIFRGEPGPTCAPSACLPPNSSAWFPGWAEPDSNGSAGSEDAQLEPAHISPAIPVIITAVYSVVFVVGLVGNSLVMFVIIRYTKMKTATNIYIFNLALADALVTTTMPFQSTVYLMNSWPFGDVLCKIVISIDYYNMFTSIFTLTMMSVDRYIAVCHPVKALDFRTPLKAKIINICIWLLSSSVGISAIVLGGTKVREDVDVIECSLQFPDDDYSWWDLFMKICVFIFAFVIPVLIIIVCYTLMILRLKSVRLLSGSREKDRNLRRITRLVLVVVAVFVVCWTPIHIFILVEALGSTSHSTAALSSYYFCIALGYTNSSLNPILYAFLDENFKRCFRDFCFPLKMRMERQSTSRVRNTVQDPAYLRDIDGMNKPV", "test": "Radioligand binding assay, kappa opioid receptor", "method": "as §1"}, "[7]": {"conditions": "1 mg/kg sc + Morphine 3 mg/kg sc"}, "[8]": {"conditions": "3 mg/kg sc + Morphine 3 mg/kg sc"}, "[9]": {"conditions": "10 mg/kg sc + Morphine 3 mg/kg sc"}}, "note": "Structures can show the parent of a compound that is named as a salt."}
{"smiles": "C[N@@+]1(CC2CC2)CC[C@]23c4c5ccc(O)c4OC2C(=O)CCC3(O)C1C5", "note": "(stereo partly drawn) [S-MNTX, (S)-N-(cyclopropylmethyl)-noroxymorphone methyl salt]", "values": [{"measurement": "Ki", "setting": "[1]", "result": 0.198, "unit": "µM"}, {"measurement": "Response to DAMGO (1.0E−07 M) in the presence of the compound", "setting": "[2]; compound 1.0E−04 M", "result": 110, "unit": "%"}, {"measurement": "Response to DAMGO (1.0E−07 M) in the presence of the compound", "setting": "[2]; compound 1.0E−05 M", "result": 105, "unit": "%"}, {"measurement": "Response to DAMGO (1.0E−07 M) in the presence of the compound", "setting": "[2]; compound 1.0E−06 M", "result": 100, "unit": "%"}, {"measurement": "Response to DAMGO (1.0E−07 M) in the presence of the compound", "setting": "[2]; compound 1.0E−07 M", "result": 100, "unit": "%"}, {"measurement": "Response to DAMGO (1.0E−07 M) in the presence of the compound", "setting": "[2]; compound 1.0E−08 M", "result": 100, "unit": "%"}, {"measurement": "Response to DAMGO (1.0E−07 M) in the presence of the compound", "setting": "[2]; compound 3.0E−05 M", "result": 109, "unit": "%"}, {"measurement": "Response to DAMGO (1.0E−07 M) in the presence of the compound", "setting": "[2]; compound 3.0E−06 M", "result": 102, "unit": "%"}, {"measurement": "Response to DAMGO (1.0E−07 M) in the presence of the compound", "setting": "[2]; compound 3.0E−07 M", "result": 100, "unit": "%"}, {"measurement": "Response to DAMGO (1.0E−07 M) in the presence of the compound", "setting": "[2]; compound 3.0E−08 M", "result": 100, "unit": "%"}, {"measurement": "Antagonist activity IC50 value", "setting": "[2]; guinea pig ileum, against DAMGO 1.0E−07 M", "result": "No antagonist activity"}, {"measurement": "Percent Decrease", "setting": "[3]; [7]", "result": 54, "unit": "%"}, {"measurement": "Mean Motility", "setting": "[3]; [7]", "result": "0.281*"}, {"measurement": "Percent Decrease", "setting": "[3]; [8]", "result": 57, "unit": "%"}, {"measurement": "Mean Motility", "setting": "[3]; [8]", "result": "0.258*"}, {"measurement": "Percent Decrease", "setting": "[3]; [9]", "result": 80, "unit": "%"}, {"measurement": "Mean Motility", "setting": "[3]; [9]", "result": "0.122*"}, {"measurement": "Percent Decrease", "setting": "[3]; 10 mg/kg sc + Saline", "result": 21, "unit": "%"}, {"measurement": "Mean Motility", "setting": "[3]; 10 mg/kg sc + Saline", "result": "0.476*"}, {"measurement": "effect on GI transit in combination with / prior to morphine", "setting": "[3]; rats, sc, 15 minutes before morphine 3 mg/kg", "result": "dramatic synergistic agonist effect in decreasing GI motility"}, {"measurement": "effect on GI transit when administered alone", "setting": "[3]; rats, sc, alone", "result": "decreased GI motility"}, {"measurement": "antagonist effect in cAMP assay", "setting": "[4]; cAMP antagonist assay", "result": "no antagonist effect"}, {"measurement": "cAMP antagonist assay value (Table IX.2)", "setting": "[4]; log{M} conc −4.0", "result": "−13"}, {"measurement": "cAMP antagonist assay value (Table IX.2)", "setting": "[4]; log{M} conc −4.5", "result": "−13"}, {"measurement": "cAMP antagonist assay value (Table IX.2)", "setting": "[4]; log{M} conc −5.0", "result": "−9"}, {"measurement": "cAMP antagonist assay value (Table IX.2)", "setting": "[4]; log{M} conc −5.5", "result": "−8"}, {"measurement": "cAMP antagonist assay value (Table IX.2)", "setting": "[4]; log{M} conc −6.0", "result": "−1"}, {"measurement": "cAMP antagonist assay value (Table IX.2)", "setting": "[4]; log{M} conc −6.5", "result": 9}, {"measurement": "cAMP antagonist assay value (Table IX.2)", "setting": "[4]; log{M} conc −7.0", "result": 5}, {"measurement": "cAMP antagonist assay value (Table IX.2)", "setting": "[4]; log{M} conc −7.5", "result": 6}, {"measurement": "cAMP antagonist assay value (Table IX.2)", "setting": "[4]; log{M} conc −8.0", "result": 4}, {"measurement": "cAMP antagonist assay value (Table IX.2)", "setting": "[4]; log{M} conc −9.0", "result": 0}, {"measurement": "Response to the compound (decrease in twitch contraction amplitude)", "setting": "[5]; 1.0E−04 M, mean, n=2", "result": 109, "unit": "%"}, {"measurement": "Response to the compound (decrease in twitch contraction amplitude)", "setting": "[5]; 1.0E−05 M, mean, n=2", "result": 92, "unit": "%"}, {"measurement": "Response to the compound (decrease in twitch contraction amplitude)", "setting": "[5]; 1.0E−06 M, mean, n=2", "result": 35, "unit": "%"}, {"measurement": "Response to the compound (decrease in twitch contraction amplitude)", "setting": "[5]; 1.0E−07 M, mean, n=2", "result": 5, "unit": "%"}, {"measurement": "Response to the compound (decrease in twitch contraction amplitude)", "setting": "[5]; 1.0E−08 M, mean, n=2", "result": 0, "unit": "%"}, {"measurement": "Response to the compound (decrease in twitch contraction amplitude)", "setting": "[5]; 3.0E−05 M, mean, n=2", "result": 109, "unit": "%"}, {"measurement": "Response to the compound (decrease in twitch contraction amplitude)", "setting": "[5]; 3.0E−06 M, mean, n=2", "result": 59, "unit": "%"}, {"measurement": "Response to the compound (decrease in twitch contraction amplitude)", "setting": "[5]; 3.0E−07 M, mean, n=2", "result": 16, "unit": "%"}, {"measurement": "Response to the compound (decrease in twitch contraction amplitude)", "setting": "[5]; 3.0E−08 M, mean, n=2", "result": 0, "unit": "%"}, {"measurement": "Response to the compound +naloxone", "setting": "[5]; compound 1.0E−04 M + naloxone 1.0E−07 M, percent of control response to DAMGO, mean, n=2", "result": 17, "unit": "%"}, {"measurement": "behaviour at the μ-opioid receptors in this tissue", "setting": "[5]; field-stimulated guinea pig ileum", "result": "behaves as an agonist"}, {"measurement": "EC50", "setting": "[5]; guinea pig ileum, linear regression of concentration-response curve", "result": 2, "unit": "µM"}, {"measurement": "Ki", "setting": "[6]", "result": 1.76, "unit": "µM"}]}
